Experimental findings from PubChem BioAssay AID720589 (Broad Institute, 2013) are described below.

Active and inactive are the calls of the source.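 Rule for the calls: active = fitted curve drops below -35% activity at a concentration within twice the top valid tested dose; inconclusive = no clear call, values can overlap the other calls; inactive = signal rising instead of falling, among other cases.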

One experiment in a line: ATP-based viability loss in HepG2 cells – cell-based, CellTiter-Glo luminescence, cherry-pick, set 3, cytotoxicity control, dose response (AID 720589). The conditions noted are these: HepG2 viability, ATP luminescence (CellTiter-Glo), 72 h; at 0.011 µM; active compounds read low; 0% = untreated, negative = ATP loss.
On to `Nc1ccc(Oc2cccc(Oc3ccc(N)cc3)c2)cc1`, for which the max activity was 11.2% (inactive).

As for `COC(=O)C[C@H]1CC[C@H]2[C@H](COc3ccc(NC(=O)Nc4cccc(Cl)c4)cc3C(=O)N2C)O1`, the max activity was -21.5% (inactive).

As to `CN(C)[C@@H]1CCC[C@@H]1OC(=O)C(c1ccccc1)c1ccccc1`, the max activity was 32.6% (inactive).

`CCS(=O)(=O)N1Cc2ccccc2CC1C(=O)Nc1nnc(SCc2ccc(C#N)cc2)s1` (stereo not drawn): the max activity was 21.9% (inactive).

For the molecule `Cc1cccc(N2CCN(C3C(=O)Nc4ccccc4-n4nnnc43)CC2)c1C` (stereo not drawn), the max activity is 12.3% (inactive).

As for `CC(C)(C)c1ccc(/C=N/Nc2ccc(C(=O)O)cc2)cc1`, the max activity is 17.4% (inactive).

For the molecule `CCOC(=O)c1c(-c2ccc(C)cc2)csc1NC(=O)CCN1CCOCC1`, the max activity is 41.8% (inactive).

Staying with this experiment, now noted: HepG2 viability, ATP luminescence (CellTiter-Glo), 72 h; at 0.012 µM; active compounds read low; 0% = untreated, negative = ATP loss.
With `N#C[C@@H]1[C@H](c2ccc(C#Cc3cccc(F)c3)cc2)[C@@H](CO)N1C(=O)C1CCCC1`, the max activity is 24% (inactive).

Still in this experiment, the particulars now being: HepG2 viability, ATP luminescence (CellTiter-Glo), 72 h; at 0.035 µM; active compounds read low; 0% = untreated, negative = ATP loss.
As to `CCOC(=O)Cc1ccc(NC(=O)c2ccccc2Br)cc1`, the max activity is -16.1% (inactive).

Regarding `CC1(C)Oc2cc3oc(-c4cc(O)cc(O)c4)cc3cc2CC1O` (stereo not drawn), the max activity is -28.3% (inactive).

For the molecule `O=C(O)c1ccccc1C(=O)Nc1ccc(Oc2cccc3ccccc23)cc1`, the max activity was -12.6% (inactive).

In the case of `CCCn1c(C)cc(C(=O)CN2C(=O)c3ccccc3S2(=O)=O)c1C`, the max activity is 5.3% (inactive).

On to `Cc1ccc(C(=O)CN2C(=O)c3ccccc3S2(=O)=O)cc1`, for which the max activity was 23.9% (inactive).

In the case of `CCc1ccc(/C=C2\SC(=S)N(CCC(=O)Nc3cc(C)on3)C2=O)cc1`, the max activity is -25.9% (inactive).

`C/C(=N\OCc1cccc(C(=O)O)c1)c1ccc(Cl)cc1`: the max activity is -7.45% (inactive).

Staying with this experiment, now noted: HepG2 viability, ATP luminescence (CellTiter-Glo), 72 h; at 0.1 µM; active compounds read low; 0% = untreated, negative = ATP loss.
Turning to `COC(=O)C[C@@H]1CC[C@@H]2[C@@H](COc3ccc(NC(=O)Nc4cccc(C#N)c4)cc3C(=O)N2C)O1`, the max activity is -8.7% (inactive).

Regarding `O=C1Nc2ccccc2C1=Nc1ccc(Br)cc1`, the max activity is -11.9% (inactive).

With `CC(=O)c1ccc(NC(=O)c2noc3c2CCC3)cc1`, the max activity was -34.6% (inactive).

For `CCCCN=C(NNc1ccc(Br)cc1)C(=O)OCC`, the max activity was -31% (inactive).

With `CCn1c(C)cc(C(=O)CN2C(=O)c3ccccc3S2(=O)=O)c1C`, the max activity was -11.5% (inactive).

As to `CCc1ccc(N2C=C(C(=O)OC)C(c3ccc(OC)cc3)C(C#N)=C2N)cc1` (stereo not drawn), the max activity was -15.5% (inactive).

Regarding `CC(=O)Nc1cc(C(=O)NCc2ccco2)ccc1Sc1ccc(F)cc1`, the max activity was -21.9% (inactive).

The same experiment, now with this note: HepG2 viability, ATP luminescence (CellTiter-Glo), 72 h; at 0.3 µM; active compounds read low; 0% = untreated, negative = ATP loss.
As for `COC(=O)C[C@H]1CC[C@@H]2[C@H](COc3ccc(NC(=O)Nc4cccc(Cl)c4)cc3C(=O)N2C)O1`, the max activity is -38.3% (inactive).

Consider `COC(=O)C[C@H]1CC[C@H]2[C@@H](COc3ccc(NC(=O)Nc4cccc(Cl)c4)cc3C(=O)N2C)O1`, for which the max activity was -27.3% (inactive).

For `CC(C)CN(C(=O)CN1CCOCC1)c1c(N)n(CC(C)C)c(=O)[nH]c1=O`, the max activity is -39% (inactive).

As for `CN(C)c1ccc(N=Nc2ccc(C(=O)O)cc2)cc1`, the max activity was -28.7% (inactive).

Take `COC(=O)C[C@@H]1CC[C@@H]2[C@H](COc3ccc(NC(=O)c4cccc(F)c4)cc3C(=O)N2C)O1`: the max activity was -26.8% (inactive).

As to `C[C@H]1CN([C@@H](C)CO)C(=O)c2cc(NS(=O)(=O)c3ccc(Cl)cc3)ccc2O[C@H]1CN(C)Cc1ccc(Cl)c(Cl)c1`, the max activity was -20.4% (inactive).

The experiment is the same for the next values; noted with them: HepG2 viability, ATP luminescence (CellTiter-Glo), 72 h; at 0.9 µM; active compounds read low.
For `COC(=O)[C@H]1[C@H](CO)[C@H]2Cn3c(ccc(-c4ccccc4F)c3=O)[C@@H]1N2CC1CCCC1`, the max activity is -23.4% (inactive).

The experiment is the same for the next values; noted with them: HepG2 viability, ATP luminescence (CellTiter-Glo), 72 h; at 0.9 µM; active compounds read low; 0% = untreated, negative = ATP loss.
For `O=c1oc2cc(O)ccc2s1`, the max activity is -35.6% (inactive).

In the case of `S=c1[nH]nc(-c2cc(-c3ccccc3)n[nH]2)n1/N=C/C(Br)=C/c1ccccc1`, the max activity was -17.9% (inactive).

Regarding `COC(=O)C[C@@H]1CC[C@@H]2[C@H](COc3ccc(NC(=O)c4ccc(F)cc4)cc3C(=O)N2C)O1`, the max activity was -31.5% (inactive).

With `c1cncc(-c2ccc([C@@H]3[C@H]4CNC[C@@H]3N4CC3CCOCC3)cc2)c1`, the max activity was -28.8% (inactive).

With `CCc1ccc(Cn2ncc3c(C(=O)O)cc(C)nc32)cc1`, the max activity was -27.2% (inactive).

With `Cc1ccc(NC(=O)COC(=O)c2ccc3c(c2)OCO3)cc1S(=O)(=O)N1CCCCC1`, the max activity was -30.2% (inactive).

Still in this experiment, the particulars now being: HepG2 viability, ATP luminescence (CellTiter-Glo), 72 h; at 1 µM; active compounds read low; 0% = untreated, negative = ATP loss.
On to `C[C@H]1CN([C@@H](C)CO)C(=O)Cc2cc(NC(=O)CCCCCC(=O)Nc3ccccc3N)ccc2O[C@H]1CN(C)Cc1ccc(C(F)(F)F)cc1`, for which the max activity was -22.7% (inactive).

The experiment is the same for the next values; noted with them: HepG2 viability, ATP luminescence (CellTiter-Glo), 72 h; at 2.6 µM; active compounds read low; 0% = untreated, negative = ATP loss.
Take `COC(=O)C[C@@H]1CC[C@@H]2[C@H](COc3ccc(NC(=O)c4cccc(Cl)c4)cc3C(=O)N2C)O1`: the max activity was -17.7% (inactive).

The experiment is the same for the next values; noted with them: HepG2 viability, ATP luminescence (CellTiter-Glo), 72 h; at 2.85 µM; active compounds read low; 0% = untreated, negative = ATP loss.
With `CCCCCCN(C(=O)CCCCCN1C(=O)NC(c2ccc(Cl)cc2)C(C(=O)OCc2ccccc2)=C1C)C(C(=O)NCCCC)c1ccc(OCC(=O)OC)c(C(=O)OC)c1` (stereo not drawn), the max activity is -30.9% (inactive).

On to `Cc1ccccc1N=CC1=C(O)c2ccccc2C1=O`, for which the max activity is 18.8% (inactive).

As for `CC(C)Oc1ccc(Br)cc1C(=O)N/N=C/c1c[nH]c2ccccc12`, the max activity was -17% (inactive).

As to `O=C(O)c1ccccc1C(=O)Nc1ccc(Oc2ccc3ccccc3c2)cc1`, the max activity was -28.2% (inactive).

Turning to `COc1ccc(NC(=O)c2cc3ccccc3oc2=O)cc1`, the max activity is -36.9% (inactive).

Still in this experiment, the particulars now being: HepG2 viability, ATP luminescence (CellTiter-Glo), 72 h; at 8 µM; active compounds read low; 0% = untreated, negative = ATP loss.
`CCN1CCS/C1=C\C=C\C1=[N+](CC)CCS1`: the max activity was -37.7% (inactive).

Turning to `COc1ccc(N=C(NN)c2ccc3ccccc3n2)cc1`, the max activity is -15.2% (inactive).

For the molecule `C[C@@H]1CN([C@@H](C)CO)C(=O)c2cccc(NC(=O)Nc3cccc4ccccc34)c2O[C@@H]1CN(C)Cc1ccc(C(=O)Nc2ccccc2N)cc1`, the max activity is -36.9% (inactive).

Turning to `CN(C)c1ccc(-c2ccnc3c2CC(C)(C(=O)NCc2ccco2)O3)cc1` (stereo not drawn), the max activity was -25.6% (inactive).

As for `O=C(C[C@@H]1C[C@H]2c3cc(NS(=O)(=O)c4ccc(F)cc4)ccc3O[C@H]2[C@H](CO)O1)NCc1ccc(-c2ccccc2)cc1`, the max activity was -26.1% (inactive).

As for `O=C(O)c1ccc(N/N=C/c2c(F)cccc2Cl)cc1`, the max activity was -13.6% (inactive).

With `O=C(COC(=O)c1ccc[nH]c1=O)Nc1ccc(N2CCCCC2)cc1`, the max activity was -25.3% (inactive).

Take `CCOc1cc2[nH]c(=S)n(Cc3ccc(C(=O)N4CCN(C)CC4)cc3)c(=O)c2cc1OCC`: the max activity is -29.8% (inactive).

For the molecule `CN(c1ccc(NC(=O)CCc2c[nH]c3ccccc23)cc1)c1ccccn1`, the max activity is -31.2% (inactive).

Turning to `Cc1ccc(Cl)cc1NC(=O)Cn1cc(C(F)(F)F)cc(Cl)c1=O`, the max activity is -28.6% (inactive).

On to `COc1cc(/C=N/NS(=O)(=O)c2ccc(C)cc2)ccc1OCc1cccc(C(=O)O)c1`, for which the max activity was -15.9% (inactive).

Staying with this experiment, now noted: HepG2 viability, ATP luminescence (CellTiter-Glo), 72 h; at 23.5 µM; active compounds read low; 0% = untreated, negative = ATP loss.
Consider `CCCNC(=O)N1[C@H](C#N)[C@H](c2ccc(C#Cc3cccc(F)c3)cc2)[C@H]1CO`, for which the max activity was 22.8% (inactive).

The experiment is the same for the next values; noted with them: HepG2 viability, ATP luminescence (CellTiter-Glo), 72 h; at 26 µM; active compounds read low; 0% = untreated, negative = ATP loss.
For the molecule `O=C(CCCN1C(=O)/C(=C/c2ccccc2Cl)SC1=S)NNC(=O)c1ccc(Cl)cc1`, the max activity is 22.9% (inactive).

`CC1(CCc2ccccc2)NC(=O)N(CC(=O)N2CC(=O)Nc3ccccc32)C1=O` (stereo not drawn): the max activity is -19.7% (inactive).

For `COc1ccc(-c2cn(-c3ccc(OC)cc3)c3[n+]2-c2ccccc2CC3)cc1`, the max activity was -23.2% (inactive).

Consider `Cc1nc2ncccn2c1-c1csc(Nc2ccc(O)cc2)n1`, for which the max activity is -23.1% (inactive).

Regarding `COc1ccc(C(C)(O)c2nc(-c3cccc(F)c3)cs2)cc1` (stereo not drawn), the max activity was -21.6% (inactive).

With `CCCn1nnc(NC(=S)NC(=O)C(C)(C)C)n1`, the max activity was -35.2% (inactive).

Consider `O=C1CCC2S/C(=C/Nc3ccc(C(F)(F)F)cc3)C(=O)N12` (stereo not drawn), for which the max activity was 25.6% (inactive).

On to `Cc1ccsc1/C=N/Nc1ccc(C(=O)O)cc1`, for which the max activity was -27.6% (inactive).

In the case of `O=C(O)c1ccc(N/N=C/c2c[nH]c3ccccc23)cc1`, the max activity is -17.3% (inactive).

Take `COc1ccc(CNc2ncc(-c3ccc(F)cc3)n2C)c2ccccc12`: the max activity was -23.1% (inactive).

`O=c1c(Cl)cc(Cl)nn1-c1ccccc1`: the max activity was -34.4% (inactive).

For `C(=N\Nc1ccc2ccccc2n1)/c1ccc2c(c1)OCCO2`, the max activity is -26.2% (inactive).

Turning to `Cc1ccc(/C=C/C(=O)N2CCN(S(=O)(=O)c3c(C)c(C)cc(C)c3C)CC2)o1`, the max activity was -14.8% (inactive).

In the case of `O=C1C(=O)N(CCS(=O)(=O)c2ccccc2)c2ccccc21`, the max activity is 24.1% (inactive).
